Reference: patent US20110173718A1, “HERBICIDE TOLERANT PLANTS” (SYNGENTA CROP PROTECTION, INC., priority 2008, published 2011)

Test system: weeds
Test: Glasshouse weed control by HST/HPPD (mesotrione) mixtures, pre-emergence
Format: in vivo
Conditions: for colby: Colby synergy score; for % Damage at 14 DAA, 1 g ai ha^−1 mesotrione / % Damage at 14 DAA, no-mesotrione: N = 3
[1] = ALOMY, 16 g/ha + mesotrione 1 g ai/ha
[2] = ALOMY, 31 g/ha + mesotrione 1 g ai/ha
[3] = ALOMY, 63 g/ha + mesotrione 1 g ai/ha
[4] = ALOMY, 125 g/ha + mesotrione 1 g ai/ha
[5] = ALOMY, 250 g/ha + mesotrione 1 g ai/ha
[6] = ALOMY, 500 g/ha + mesotrione 1 g ai/ha
[7] = AMARE, 16 g/ha + mesotrione 1 g ai/ha
[8] = AMARE, 31 g/ha + mesotrione 1 g ai/ha
[9] = AMARE, 63 g/ha + mesotrione 1 g ai/ha
[10] = AMARE, 125 g/ha + mesotrione 1 g ai/ha
[11] = AMARE, 250 g/ha + mesotrione 1 g ai/ha
[12] = AMARE, 500 g/ha + mesotrione 1 g ai/ha
[13] = ECHCG, 16 g/ha + mesotrione 1 g ai/ha
[14] = ECHCG, 31 g/ha + mesotrione 1 g ai/ha
[15] = ECHCG, 63 g/ha + mesotrione 1 g ai/ha
[16] = ECHCG, 125 g/ha + mesotrione 1 g ai/ha
[17] = ECHCG, 250 g/ha + mesotrione 1 g ai/ha
[18] = ECHCG, 500 g/ha + mesotrione 1 g ai/ha
[19] = IPOHE, 16 g/ha + mesotrione 1 g ai/ha
[20] = IPOHE, 31 g/ha + mesotrione 1 g ai/ha
[21] = IPOHE, 63 g/ha + mesotrione 1 g ai/ha
[22] = IPOHE, 125 g/ha + mesotrione 1 g ai/ha
[23] = IPOHE, 250 g/ha + mesotrione 1 g ai/ha
[24] = IPOHE, 500 g/ha + mesotrione 1 g ai/ha
[25] = SETFA, 16 g/ha + mesotrione 1 g ai/ha
[26] = SETFA, 31 g/ha + mesotrione 1 g ai/ha
[27] = SETFA, 63 g/ha + mesotrione 1 g ai/ha
[28] = SETFA, 125 g/ha + mesotrione 1 g ai/ha
[29] = SETFA, 250 g/ha + mesotrione 1 g ai/ha
[30] = SETFA, 500 g/ha + mesotrione 1 g ai/ha
[31] = SOLNI, 16 g/ha + mesotrione 1 g ai/ha
[32] = SOLNI, 31 g/ha + mesotrione 1 g ai/ha
[33] = SOLNI, 63 g/ha + mesotrione 1 g ai/ha
[34] = SOLNI, 125 g/ha + mesotrione 1 g ai/ha
[35] = SOLNI, 250 g/ha + mesotrione 1 g ai/ha
[36] = SOLNI, 500 g/ha + mesotrione 1 g ai/ha

O=c1c(-c2c(F)ccc(F)c2Cl)c(O)c2cccnc2n1CC(F)F [Compound 2.13]
colby [1]: 0%
% Damage at 14 DAA, 1 g ai ha^−1 mesotrione [1]: 0%
% Damage at 14 DAA, no-mesotrione (ALOMY, 16 g/ha): 0%
colby [2]: 0%
% Damage at 14 DAA, 1 g ai ha^−1 mesotrione [2]: 0%
% Damage at 14 DAA, no-mesotrione (ALOMY, 31 g/ha): 0%
colby [3]: 0%
% Damage at 14 DAA, 1 g ai ha^−1 mesotrione [3]: 0%
% Damage at 14 DAA, no-mesotrione (ALOMY, 63 g/ha): 0%
colby [4]: 0%
% Damage at 14 DAA, 1 g ai ha^−1 mesotrione [4]: 0%
% Damage at 14 DAA, no-mesotrione (ALOMY, 125 g/ha): 0%
colby [5]: 0%
% Damage at 14 DAA, 1 g ai ha^−1 mesotrione [5]: 0%
% Damage at 14 DAA, no-mesotrione (ALOMY, 250 g/ha): 0%
colby [6]: −1%
% Damage at 14 DAA, 1 g ai ha^−1 mesotrione [6]: 0%
% Damage at 14 DAA, no-mesotrione (ALOMY, 500 g/ha): 2%
colby [7]: 5%
% Damage at 14 DAA, 1 g ai ha^−1 mesotrione [7]: 7%
% Damage at 14 DAA, no-mesotrione (AMARE, 16 g/ha): 0%
colby [8]: 13%
% Damage at 14 DAA, 1 g ai ha^−1 mesotrione [8]: 23%
% Damage at 14 DAA, no-mesotrione (AMARE, 31 g/ha): 8%
colby [9]: 4%
% Damage at 14 DAA, 1 g ai ha^−1 mesotrione [9]: 33%
% Damage at 14 DAA, no-mesotrione (AMARE, 63 g/ha): 28%
colby [10]: 12%
% Damage at 14 DAA, 1 g ai ha^−1 mesotrione [10]: 45%
% Damage at 14 DAA, no-mesotrione (AMARE, 125 g/ha): 32%
colby [11]: 3%
% Damage at 14 DAA, 1 g ai ha^−1 mesotrione [11]: 57%
% Damage at 14 DAA, no-mesotrione (AMARE, 250 g/ha): 53%
colby [12]: 9%
% Damage at 14 DAA, 1 g ai ha^−1 mesotrione [12]: 70%
% Damage at 14 DAA, no-mesotrione (AMARE, 500 g/ha): 60%
colby [13]: 0%
% Damage at 14 DAA, 1 g ai ha^−1 mesotrione [13]: 0%
% Damage at 14 DAA, no-mesotrione (ECHCG, 16 g/ha): 0%
colby [14]: 0%
% Damage at 14 DAA, 1 g ai ha^−1 mesotrione [14]: 0%
% Damage at 14 DAA, no-mesotrione (ECHCG, 31 g/ha): 0%
colby [15]: 3%
% Damage at 14 DAA, 1 g ai ha^−1 mesotrione [15]: 3%
% Damage at 14 DAA, no-mesotrione (ECHCG, 63 g/ha): 0%
colby [16]: 3%
% Damage at 14 DAA, 1 g ai ha^−1 mesotrione [16]: 3%
% Damage at 14 DAA, no-mesotrione (ECHCG, 125 g/ha): 0%
colby [17]: 2%
% Damage at 14 DAA, 1 g ai ha^−1 mesotrione [17]: 2%
% Damage at 14 DAA, no-mesotrione (ECHCG, 250 g/ha): 0%
colby [18]: −2%
% Damage at 14 DAA, 1 g ai ha^−1 mesotrione [18]: 2%
% Damage at 14 DAA, no-mesotrione (ECHCG, 500 g/ha): 3%
colby [19]: 0%
% Damage at 14 DAA, 1 g ai ha^−1 mesotrione [19]: 0%
% Damage at 14 DAA, no-mesotrione (IPOHE, 16 g/ha): 0%
colby [20]: 0%
% Damage at 14 DAA, 1 g ai ha^−1 mesotrione [20]: 0%
% Damage at 14 DAA, no-mesotrione (IPOHE, 31 g/ha): 0%
colby [21]: 7%
% Damage at 14 DAA, 1 g ai ha^−1 mesotrione [21]: 7%
% Damage at 14 DAA, no-mesotrione (IPOHE, 63 g/ha): 0%
colby [22]: 0%
% Damage at 14 DAA, 1 g ai ha^−1 mesotrione [22]: 0%
% Damage at 14 DAA, no-mesotrione (IPOHE, 125 g/ha): 0%
colby [23]: 5%
% Damage at 14 DAA, 1 g ai ha^−1 mesotrione [23]: 5%
% Damage at 14 DAA, no-mesotrione (IPOHE, 250 g/ha): 0%
colby [24]: 0%
% Damage at 14 DAA, 1 g ai ha^−1 mesotrione [24]: 17%
% Damage at 14 DAA, no-mesotrione (IPOHE, 500 g/ha): 17%
colby [25]: 0%
% Damage at 14 DAA, 1 g ai ha^−1 mesotrione [25]: 0%
% Damage at 14 DAA, no-mesotrione (SETFA, 16 g/ha): 0%
colby [26]: 0%
% Damage at 14 DAA, 1 g ai ha^−1 mesotrione [26]: 0%
% Damage at 14 DAA, no-mesotrione (SETFA, 31 g/ha): 0%
colby [27]: 0%
% Damage at 14 DAA, 1 g ai ha^−1 mesotrione [27]: 0%
% Damage at 14 DAA, no-mesotrione (SETFA, 63 g/ha): 0%
colby [28]: 0%
% Damage at 14 DAA, 1 g ai ha^−1 mesotrione [28]: 0%
% Damage at 14 DAA, no-mesotrione (SETFA, 125 g/ha): 0%
colby [29]: 0%
% Damage at 14 DAA, 1 g ai ha^−1 mesotrione [29]: 0%
% Damage at 14 DAA, no-mesotrione (SETFA, 250 g/ha): 0%
colby [30]: 0%
% Damage at 14 DAA, 1 g ai ha^−1 mesotrione [30]: 0%
% Damage at 14 DAA, no-mesotrione (SETFA, 500 g/ha): 0%
colby [31]: −12%
% Damage at 14 DAA, 1 g ai ha^−1 mesotrione [31]: 5%
% Damage at 14 DAA, no-mesotrione (SOLNI, 16 g/ha): 0%
colby [32]: −3%
% Damage at 14 DAA, 1 g ai ha^−1 mesotrione [32]: 23%
% Damage at 14 DAA, no-mesotrione (SOLNI, 31 g/ha): 12%
colby [33]: 4%
% Damage at 14 DAA, 1 g ai ha^−1 mesotrione [33]: 38%
% Damage at 14 DAA, no-mesotrione (SOLNI, 63 g/ha): 22%
colby [34]: 9%
% Damage at 14 DAA, 1 g ai ha^−1 mesotrione [34]: 53%
% Damage at 14 DAA, no-mesotrione (SOLNI, 125 g/ha): 33%
colby [35]: 5%
% Damage at 14 DAA, 1 g ai ha^−1 mesotrione [35]: 78%
% Damage at 14 DAA, no-mesotrione (SOLNI, 250 g/ha): 68%
colby [36]: −1%
% Damage at 14 DAA, 1 g ai ha^−1 mesotrione [36]: 87%
% Damage at 14 DAA, no-mesotrione (SOLNI, 500 g/ha): 85%
